US20060190186A1, “Viral polymerase and modulation thereof” (Melbourne Health, priority 2003, published 2006)

Assays:
[1] = test system: recombinant HBV encoding the mutant rtS85A; assay: Antiviral testing: HBV replicative intermediates by Southern blot in Huh7 cells transfected with HBV plasmid encoding rtS85A; format: cell-based, hepatitis B virus; details: for IC50: Hepatitis B virus, Huh-7
Excerpt: (§1) The plasmid containing 1.3×HBV genome in the vector pBlueBac4.5 was used as the infectious HBV clone. This clone already had the precore mutation at G1896A. The point mutation were created by site directed mutagenesis using the commercial kits according to the manufacturers specifications (QuikChange, Stratagene). A HBV recombinant encoding the reverse transcriptase mutations rtS85A was created. The nucleotide sequence of the plasmid and the point mutations generated by site directed mutagenesis were confirmed by sequencing using the ABI Prism Big Dye Terminator Cycle Sequencing Ready Reaction Kit according to the manufacturer's specifications (Perkin Elmer, Cetus Norwalk, Conn.).
(§2) Huh7 cells were seeded at approximately 20-40% confluency and then were grown for 16-24 hours before transfection. Plasmid DNA containing HBV encoding specific mutations was transfected using Fugene according to the manufacturers protocols.
ADV and LMV were resuspended in sterile water, aliquoted, and frozen at −20° C. to avoid repeated freezing and thawing of the drug. Medium containing ADV or LMV were prepared daily as needed. In experiments in which ADV or LMV treatment was initiated […] transfection, Huh7 cells were exposed to the indicated concentration of ADV or LMV immediately after transfection with the HBV plasmid.
HBV core particles were isolated from the cytoplasmic fraction of Huh7 cells lysis buffer which includes 0.5% w/v NP-40. Cytoplasmic extracts were treated with DNAse, adjusted to 10 mmol/l […] and unprotected DNA was removed by an incubation to 500 µg/ml Proteinase K for 1.5 hours at 37° C. HBV DNA in the samples were then extracted using commercial DNA extraction kits such as Qiagen (DNA extraction) or in-house methods using sequential phenol and chloroform extractions, and the nucleic acids were recovered by ethanol precipitation. […] After southern blot analysis a BioRad Phosphoimager and the Quantity One Analysis software (BioRad, Hecules Calif.) was used to analyze suitable exposures of Southern blots. […]

[2] = test system: HBV precore mutant (G1896A); assay: Antiviral testing: HBV replicative intermediates by Southern blot in Huh7 cells transfected with HBV plasmid (precore mutant); format: cell-based; details: Hepatitis B virus, Huh-7
Excerpt: as §1, §2
ADV and LMV were resuspended in sterile water, aliquoted, and frozen at −20° C. to avoid repeated freezing and thawing of the drug. […]
HBV core particles were isolated from the cytoplasmic fraction of Huh7 cells lysis buffer which includes 0.5% w/v NP-40. […] After southern blot analysis a BioRad Phosphoimager and the Quantity One Analysis software (BioRad, Hecules Calif.) was used to analyze suitable exposures of Southern blots. […]

| SMILES | IC50 [1] [nM] | IC50 [2] [nM] | sensitivity of recombinant HBV to drug ([1]; recombinant HBV encoding the mutant rtS85A) |
| --- | --- | --- | --- |
| Nc1ccn([C@@H]2CS[C@H](CO)O2)c(=O)n1 [LMV, (−)-β-2′-deoxy-3′-thiacytidine] | 10 | 5 | – |
| Nc1ncnc2c1ncn2CCOCP(=O)(O)O [ADV, adefovir] | 5000 to 10000 | 430 | reduced sensitivity |
